molecular target: T1, Aromatase (Homo sapiens, UniProt P11511); test: Competitive inhibition of human aromatase extracted from placental microsomes after 10 mins in presence of [1beta-3H]androstenedione
T1 sequence (P11511 whole entry): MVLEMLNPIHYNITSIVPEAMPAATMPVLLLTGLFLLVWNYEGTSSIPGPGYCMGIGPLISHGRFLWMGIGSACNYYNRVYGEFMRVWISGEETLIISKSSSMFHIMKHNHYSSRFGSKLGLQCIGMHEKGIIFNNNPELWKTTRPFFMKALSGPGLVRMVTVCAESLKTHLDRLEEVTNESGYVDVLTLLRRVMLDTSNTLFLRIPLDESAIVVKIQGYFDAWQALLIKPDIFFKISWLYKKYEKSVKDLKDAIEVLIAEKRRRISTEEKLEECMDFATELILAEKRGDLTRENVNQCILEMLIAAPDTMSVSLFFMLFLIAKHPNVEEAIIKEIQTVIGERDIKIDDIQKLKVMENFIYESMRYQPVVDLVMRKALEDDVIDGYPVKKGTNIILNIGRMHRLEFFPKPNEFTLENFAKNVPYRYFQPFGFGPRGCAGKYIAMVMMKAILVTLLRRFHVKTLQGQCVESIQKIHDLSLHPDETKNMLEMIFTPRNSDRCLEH

Compound	Ki
CCCC[C@@H]1C[C@@H]2[C@H](CC[C@]3(C)C(=O)CC[C@@H]23)[C@@]2(C)CCC(=O)C=C12	1.4 nM
C[C@@H]1C[C@@H]2[C@H](CC[C@]3(C)C(=O)CC[C@@H]23)[C@@]2(C)CCC(=O)C=C12	1.4 nM
C#CC[C@@H]1C[C@@H]2[C@H](CC[C@]3(C)C(=O)CC[C@@H]23)[C@@]2(C)CCC(=O)C=C12	10 nM
C=C[C@@H]1C[C@@H]2[C@H](CC[C@]3(C)C(=O)CC[C@@H]23)[C@@]2(C)CCC(=O)C=C12	5.1 nM
C/C=C1\C[C@@H]2[C@H](CC[C@]3(C)C(=O)CC[C@@H]23)[C@@]2(C)CCC(=O)C=C12	4.9 nM
CC[C@@H]1C[C@@H]2[C@H](CC[C@]3(C)C(=O)CC[C@@H]23)[C@@]2(C)CCC(=O)C=C12	1.4 nM

molecular target: T1, Aromatase; test: Competitive inhibition of human aromatase extracted from placental microsomes by Lineweaver- Burk plots analysis in presence of 4-androstene-3,17-dione

Compound	Ki
C[C@]12CCC(=O)C=C1C[C@@H](Sc1ccc3ccccc3c1)[C@@H]1[C@@H]2CC[C@]2(C)C(=O)CC[C@@H]12	24.1 nM
C[C@]12CCC(=O)C=C1C[C@@H](Sc1ccc(Nc3ccc([N+](=O)[O-])cc3[N+](=O)[O-])cc1)[C@@H]1[C@@H]2CC[C@]2(C)C(=O)CC[C@@H]12	24.1 nM
C[C@]12CCC(=O)C=C1C[C@@H](Sc1cccc3ccccc13)[C@@H]1[C@@H]2CC[C@]2(C)C(=O)CC[C@@H]12	24.1 nM
CN(C)c1cccc2c(S(=O)(=O)Nc3ccc(S[C@@H]4CC5=CC(=O)CC[C@]5(C)[C@H]5CC[C@]6(C)C(=O)CC[C@H]6[C@H]45)cc3)cccc12	24.1 nM

molecular target: T1, Aromatase

Compound	Ki
C[C@@]12CCC[C@H]1[C@@H]1CCC3=CC(=O)C=C[C@]3(C)[C@H]1CC2	260 nM
C[C@]12CC[C@H]3[C@@H](CCC4=CC(=O)CC[C@@]43[C@@H]3CS3)[C@@H]1CCC2=O	2 nM
C[C@]12CC[C@H]3[C@@H](CCC4=CC(=O)C=C[C@@]43C)[C@@H]1CC[C@@H]2O	260 nM
C[C@]12C=CC(=O)C=C1CC[C@@H]1[C@@H]2CC[C@]2(C)C(=O)OC[C@@H]12	260 nM

molecular target: T1, Aromatase; test: Competitive inhibition of aromatase (unknown origin)

Compound	Ki	IC50
C[C@]12CC[C@H]3[C@@H](CCC4=CC(=O)CC[C@@]43CN=[N+]=[N-])[C@@H]1CCC2=O	5 nM	–
CSC[C@]12CCC(=O)C=C1CC[C@@H]1[C@@H]2CC[C@]2(C)C(=O)CC[C@@H]12	1 nM	–
C[C@]1(CC#N)CC[C@H]2[C@@H](CCC3=CC(=O)CC[C@@]32C)[C@@H]1CC#N	10000 nM	–
C[C@]12CC[C@H]3[C@@H](CCC4=CC(=O)CC[C@@]43C(=O)C(F)(F)F)[C@@H]1CCC2=O	–	26000 nM
C[C@]12CCC3C(C[C@H]4COC[C@@]35CCC(=O)C=C45)C1CCC2=O (stereo partly specified)	10000 nM	–
C[C@]12CC[C@H]3[C@@H](CCC4=CC(=O)[C@H]5CC[C@]43C5)[C@@H]1CCC2=O	10000 nM	–
C=CC1OC2(O)CC[C@]13C(=CC[C@@H]1[C@@H]3CC[C@]3(C)C(=O)CC[C@@H]13)C2 (stereo partly specified)	10000 nM	–
C[C@]12CC[C@H]3[C@@H](CC=C4[C@H]5CSC[C@]43CCC5=O)[C@@H]1CCC2=O	10000 nM	–

molecular target: T1, Aromatase; test: Inhibition of human aromatase after 30 mins by fluorescence assay

Compound	IC50
COc1ccc([C@@H]2[C@H]3C[C@H]4[C@@H]5CCC6=CC(=O)C=C[C@]6(C)[C@H]5CC[C@]4(C)C3=NN2C)cc1	1820 nM
COc1ccc([C@@H]2[C@H]3C[C@H]4[C@@H]5CCC6=CC(=O)C=C[C@]6(C)[C@H]5CC[C@]4(C)C3=NN2c2ccccc2)cc1	1820 nM
CN1N=C2[C@H](C[C@H]3[C@@H]4CCC5=CC(=O)C=C[C@]5(C)[C@H]4CC[C@]23C)[C@H]1c1ccccc1	1820 nM

molecular target: T1, Aromatase; test: Inhibition of human aromatase extracted from placental microsomes using 4-[14C]androstenedione as substrate at 0.25 to 1.25 uM after 15 mins

Compound	INH
C[C@]12CC[C@H]3[C@@H](CCC4=CC(=O)CC[C@@]43CNC(=O)C(F)(F)F)[C@@H]1CCC2=O	< 20%
C[C@]12CC[C@H]3[C@@H](CCC4=CC(=O)CC[C@@]43N=C=O)[C@@H]1CCC2=O	< 20%
COC(=O)N[C@]12CCC(=O)C=C1CC[C@H]1[C@@H]3CCC(=O)[C@@]3(C)CC[C@@H]12	< 20%
CC(=O)NC[C@]12CCC(=O)C=C1CC[C@@H]1[C@@H]2CC[C@]2(C)C(=O)CC[C@@H]12	< 20%
C[C@]12CC[C@H]3[C@@H](CCC4=CC(=O)CC[C@@]43N)[C@@H]1CCC2=O	< 20%
C[C@]12CC[C@H]3[C@@H](CCC4=CC(=O)CC[C@@]43/C=N/O)[C@@H]1CCC2=O	< 20%

Reference: ChEMBL document CHEMBL3751755, “Developing steroidal aromatase inhibitors-an effective armament to win the battle against breast cancer” (Eur J Med Chem, 2015)
